Data on 35 molecules can be found in patent US9725442B2, “Heterocyclic derivative having PGD2 receptor antagonist activity” (Shionogi & Co., Ltd., priority 2011, dated 2017).

pIC50, pKi: −log10 of the molar value. Read-outs that look alike come from different tables or passages of the source.

One assay addresses CRTH2 (Homo sapiens (Human), UniProt Q9Y5Y4). The assay is described as follows: CRTH2 receptor binding inhibitory activity ([3H]-PGD2 displacement, membranes of CRTH2-expressing K562 cell). The note with it: [3H]-PGD2 displacement, membrane of CRTH2-expressing K562 cell, read-out: Ki. The protocol: Cell membrane was prepared from CRTH2-expressing K562 cell. The cell membrane (20 μg/well) was mixed with reaction buffer (50 mM Tris/HCl, pH 7.4, 10 mM MgCl2). Then, [^3H]-PGD2 was added to the mixture and incubated for 60 min at room temperature. […] Then, the mixture was filtrated with glass paper immediately. The filter paper was washed several times and radio activity on the filter was measured. Specific binding was defined as difference between total and non-specific binding (radio activity with 10 μM PGD2). Ki values for each compound were calculated from displacement curve.

For another assay, the target named is Human DP1 receptor (Homo sapiens (Human), UniProt Q13258). The assay is described as follows: Human DP1 inhibitory activity in DP1-expressing cell (PGD2-induced cAMP). The format is cell-based. Particulars: category of cAMP IC50, human DP1 receptor expressing Jurkut cell. The protocol: Compounds were categorized as AA (cAMP is less than 100 nM) and A (cAMP is more than 100 nM and less than 5000 nM) as shown in Table 99 and 100.

Setting [1] is: CRTH2 receptor binding, categorized AAAA/AAA.

Chain of Human DP1 receptor (Q13258 whole entry): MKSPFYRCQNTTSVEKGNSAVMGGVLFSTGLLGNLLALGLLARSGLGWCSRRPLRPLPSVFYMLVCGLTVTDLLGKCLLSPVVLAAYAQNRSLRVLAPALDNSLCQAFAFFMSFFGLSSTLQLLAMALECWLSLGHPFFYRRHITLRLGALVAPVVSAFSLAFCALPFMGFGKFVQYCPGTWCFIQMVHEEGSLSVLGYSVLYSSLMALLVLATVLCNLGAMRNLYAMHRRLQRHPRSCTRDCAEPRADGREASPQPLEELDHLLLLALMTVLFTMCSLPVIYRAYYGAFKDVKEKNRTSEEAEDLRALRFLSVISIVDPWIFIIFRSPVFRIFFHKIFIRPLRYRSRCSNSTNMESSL
Chain of CRTH2 (Q9Y5Y4 whole entry): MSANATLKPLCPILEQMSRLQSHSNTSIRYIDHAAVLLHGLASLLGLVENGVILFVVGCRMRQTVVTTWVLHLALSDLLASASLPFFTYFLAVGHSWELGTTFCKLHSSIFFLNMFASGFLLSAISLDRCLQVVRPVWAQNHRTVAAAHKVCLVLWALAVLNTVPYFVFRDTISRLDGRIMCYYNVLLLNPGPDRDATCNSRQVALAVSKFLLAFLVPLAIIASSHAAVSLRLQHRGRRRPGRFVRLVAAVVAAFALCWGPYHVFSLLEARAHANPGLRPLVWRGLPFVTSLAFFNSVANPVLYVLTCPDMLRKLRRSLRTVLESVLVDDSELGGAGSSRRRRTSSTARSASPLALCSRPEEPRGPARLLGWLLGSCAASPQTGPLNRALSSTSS

Turning to `Cc1ccc2c(CC(=O)O)nn([C@@H]3C[C@H](C)N(S(=O)(=O)c4ccc(OC(C)C)cc4)C3)c2c1` [Compound I-94], the pKi on CRTH2 (setting [1]) is more than 7.00. The molecule also had a pIC50 on Human DP1 receptor of more than 7.00.

`CC(C)Oc1ccc(S(=O)(=O)N2C[C@H](n3nc(CC(=O)O)c4ccc(Cl)cc43)C[C@@H]2C)cc1` [Compound I-95]: on CRTH2 (setting [1]), the pKi was more than 7.00. The pIC50 on Human DP1 receptor is more than 7.00.

As for `C[C@@H]1CN(S(=O)(=O)c2ccc(OC(F)F)cc2)C[C@@H]1n1nc(CC(=O)O)c2ccccc21` [Compound I-98], the pKi at CRTH2 (setting [1]) is more than 7.00. The molecule also showed a pIC50 against Human DP1 receptor of more than 7.00.

In the case of `CC(C)Oc1ccc(S(=O)(=O)N2C[C@@H](C)[C@@H](n3nc(CC(=O)O)c4ccccc43)C2)cn1` [Compound I-99], on CRTH2 (setting [1]), the pKi was more than 7.00. This molecule also gave a pIC50 at Human DP1 receptor of more than 7.00.

Turning to `CC(C)Oc1ccc(S(=O)(=O)N2C[C@@H](C)[C@@H](n3nc(/C=C/C(=O)O)c4ccc(F)cc43)C2)cc1` [Compound I-100], the pKi at CRTH2 (setting [1]) was more than 7.00. This molecule also had a pIC50 at Human DP1 receptor of 5.30 to 7.00.

For the molecule `CC(C)Oc1ccc(S(=O)(=O)N2C[C@@H](C)[C@@H](n3nc(CCC(=O)O)c4ccc(F)cc43)C2)cc1` [Compound I-101], at CRTH2 (setting [1]), the pKi was 5.30 to 7.00. Besides, the pIC50 against Human DP1 receptor was 5.30 to 7.00.

`C=C[C@H]1C[C@@H](n2nc(CC(=O)O)c3ccc(F)cc32)CN1S(=O)(=O)c1ccc(OC(C)C)cc1` [Compound I-102]: the pKi at CRTH2 (setting [1]) is more than 7.00. The molecule also gave a negative-log IC50 (pIC50) against Human DP1 receptor of more than 7.00.

For the molecule `CC[C@H]1C[C@@H](n2nc(CC(=O)O)c3ccc(F)cc32)CN1S(=O)(=O)c1ccc(OC(C)C)cc1` [Compound I-103], the pKi on CRTH2 (setting [1]) was more than 7.00. Moreover, the pIC50 on Human DP1 receptor was more than 7.00.

As for `CC(C)Oc1ccc(S(=O)(=O)N2C[C@H](n3nc(CC(=O)O)c4ccc(F)cc43)C[C@]2(C)C#N)cc1` [Compound I-104], the results for the pKi at CRTH2 (setting [1]) and at CRTH2 were more than 7.00 and 7.80, respectively. The molecule further had a pIC50 against Human DP1 receptor of more than 7.00.

In the case of `CC(C)Oc1ccc(S(=O)(=O)N2C[C@H](n3nc(CC(=O)O)c4ccc(F)cc43)C[C@@]2(C)C#N)cc1` [Compound I-105], the pKi at CRTH2 (setting [1]) was more than 7.00. For the same molecule, the pIC50 against Human DP1 receptor is more than 7.00.

For the molecule `CCOc1ccc(S(=O)(=O)N2C[C@@H](C)[C@@H](n3nc(CC(=O)O)c4ccc(F)cc43)C2)cc1` [Compound I-106], the pKi at CRTH2 (setting [1]) is more than 7.00. At Human DP1 receptor, this molecule gave a pIC50 of more than 7.00.

Regarding `C[C@@H]1CN(S(=O)(=O)c2ccc(OC(F)F)cc2)C[C@@H]1n1nc(CC(=O)O)c2ccc(F)cc21` [Compound I-107], on CRTH2 (setting [1]), the pKi was more than 7.00. This molecule gave a pIC50 at Human DP1 receptor of more than 7.00.

For `CCOc1ccc(S(=O)(=O)N2C[C@@H](C)[C@@H](n3nc(CC(=O)O)c4ccc(F)cc43)C2)cn1` [Compound I-108], the pKi at CRTH2 (setting [1]) is more than 7.00. In addition, the pIC50 at Human DP1 receptor is more than 7.00.

Take `CCOc1ccc(S(=O)(=O)N2C[C@@H](C)[C@@H](n3nc(CC(=O)O)c4ccc(C)cc43)C2)cc1` [Compound I-109]: the pKi on CRTH2 (setting [1]) is more than 7.00. Further, on Human DP1 receptor, the pIC50 was more than 7.00.

For the molecule `Cc1ccc2c(CC(=O)O)nn([C@H]3CN(S(=O)(=O)c4ccc(OC(F)F)cc4)C[C@H]3C)c2c1` [Compound I-110], the pKi on CRTH2 (setting [1]) is more than 7.00. In addition, the pIC50 on Human DP1 receptor was more than 7.00.

With `CCOc1ccc(S(=O)(=O)N2C[C@@H](C)[C@@H](n3nc(CC(=O)O)c4ccc(C)cc43)C2)cn1` [Compound I-111], the pKi on CRTH2 (setting [1]) is more than 7.00. Also, the pIC50 on Human DP1 receptor is more than 7.00.

On to `COc1ccc(S(=O)(=O)N2C[C@@H](C)[C@@H](n3nc(CC(=O)O)c4ccc(F)cc43)C2)cc1` [Compound I-112], for which the pKi at CRTH2 (setting [1]) is more than 7.00. Also, the pIC50 at Human DP1 receptor is more than 7.00.

For `C[C@@H]1CN(S(=O)(=O)c2ccc(C3CC3)cc2)C[C@@H]1n1nc(CC(=O)O)c2ccc(F)cc21` [Compound I-113], the pKi was more than 7.00 on CRTH2 (setting [1]) and 7.77 at CRTH2. The negative logarithm of the IC50 (pIC50) at Human DP1 receptor is more than 7.00.

On to `Cc1ccc2c(CC(=O)O)nn([C@H]3CN(S(=O)(=O)c4ccc(OC(C)C)cc4)C[C@@H]3C)c2c1` [Compound I-114], for which the pKi at CRTH2 (setting [1]) is more than 7.00. The molecule also gave a pIC50 at Human DP1 receptor of more than 7.00.

Take `CC(C)Oc1ccc(S(=O)(=O)N2C[C@H](C)[C@@H](n3nc(CC(=O)O)c4ccccc43)C2)cc1` [Compound I-115]: at CRTH2 (setting [1]), the negative logarithm of the Ki (pKi) is more than 7.00. The molecule further showed a pIC50 against Human DP1 receptor of more than 7.00.

Take `COc1ccc(S(=O)(=O)N2C[C@@H](C)[C@@H](n3nc(CC(=O)O)c4ccc(F)cc43)C2)cn1` [Compound I-116]: the pKi on CRTH2 (setting [1]) was more than 7.00. In addition, the pIC50 at Human DP1 receptor was 5.30 to 7.00.

`Cc1ccc(S(=O)(=O)N2C[C@@H](C)[C@@H](n3nc(CC(=O)O)c4ccc(F)cc43)C2)cc1` [Compound I-117]: the pKi at CRTH2 (setting [1]) is more than 7.00; on CRTH2, 8.80. At Human DP1 receptor, the pIC50 was 5.30 to 7.00.

As for `CCc1ccc(S(=O)(=O)N2C[C@@H](C)[C@@H](n3nc(CC(=O)O)c4ccc(F)cc43)C2)cc1` [Compound I-118], the pKi at CRTH2 (setting [1]) was more than 7.00. The pIC50 on Human DP1 receptor was more than 7.00.

For the molecule `C[C@@H]1CN(S(=O)(=O)c2ccc(C(F)(F)F)cc2)C[C@@H]1n1nc(CC(=O)O)c2ccc(F)cc21` [Compound I-119], the pKi on CRTH2 (setting [1]) is more than 7.00. At Human DP1 receptor, this molecule showed a pIC50 of 5.30 to 7.00.

As to `C[C@@H]1CN(S(=O)(=O)c2ccc(OC(F)(F)F)cc2)C[C@@H]1n1nc(CC(=O)O)c2ccc(F)cc21` [Compound I-120], the pKi on CRTH2 (setting [1]) is more than 7.00. At Human DP1 receptor, this molecule showed a pIC50 of more than 7.00.

Take `C[C@@H]1CN(S(=O)(=O)c2ccccc2Cl)C[C@@H]1n1nc(CC(=O)O)c2ccc(F)cc21` [Compound I-121]: the pKi at CRTH2 (setting [1]) is more than 7.00. The pIC50 at Human DP1 receptor was 5.30 to 7.00.

In the case of `C[C@@H]1CN(S(=O)(=O)c2cccc(Cl)c2)C[C@@H]1n1nc(CC(=O)O)c2ccc(F)cc21` [Compound I-122], the pKi on CRTH2 (setting [1]) is more than 7.00; at CRTH2, 8.60. The same molecule gave a pIC50 at Human DP1 receptor of 5.30 to 7.00.

As to `C[C@@H]1CN(S(=O)(=O)c2ccccc2C#N)C[C@@H]1n1nc(CC(=O)O)c2ccc(F)cc21` [Compound I-124], at CRTH2 (setting [1]), the pKi is more than 7.00. The pIC50 against Human DP1 receptor was 5.30 to 7.00.

As for `CCOc1cc(F)c(S(=O)(=O)N2C[C@@H](C)[C@@H](n3nc(CC(=O)O)c4ccc(F)cc43)C2)c(F)c1` [Compound I-125], the pKi on CRTH2 (setting [1]) is more than 7.00. In addition, the pIC50 against Human DP1 receptor is 5.30 to 7.00.

As for `CCc1ccc(S(=O)(=O)N2C[C@@H](C)[C@@H](n3nc(CC(=O)O)c4ccc(C(F)(F)F)cc43)C2)cc1` [Compound I-126], the pKi at CRTH2 (setting [1]) was more than 7.00. In addition, the pIC50 at Human DP1 receptor is more than 7.00.

Turning to `C[C@@H]1CN(S(=O)(=O)c2ccc(OC(F)F)cc2)C[C@@H]1n1nc(CC(=O)O)c2ccc(C(F)(F)F)cc21` [Compound I-127], the pKi at CRTH2 (setting [1]) was more than 7.00. At Human DP1 receptor, the pIC50 was more than 7.00.

With `COc1ccc(S(=O)(=O)N2C[C@@H](C)[C@@H](n3nc(CC(=O)O)c4ccc(C(F)(F)F)cc43)C2)cc1` [Compound I-128], the pKi on CRTH2 (setting [1]) was more than 7.00. The pIC50 at Human DP1 receptor was more than 7.00.

For `CCOc1ccc(S(=O)(=O)N2C[C@@H](C)[C@@H](n3nc(CC(=O)O)c4ccc(C(F)(F)F)cc43)C2)cc1` [Compound I-129], on CRTH2 (setting [1]), the pKi is more than 7.00. At Human DP1 receptor, this molecule had a pIC50 of more than 7.00.

With `CCOc1ccc(S(=O)(=O)N2C[C@@H](C)[C@@H](n3nc(CC(=O)O)c4ccc(C(F)(F)F)cc43)C2)cn1` [Compound I-132], the pKi at CRTH2 (setting [1]) is more than 7.00. Besides, on Human DP1 receptor, the pIC50 is more than 7.00.

Take `CC(C)Oc1ccc(S(=O)(=O)N2C[C@H](n3nc(CC(=O)O)c4cccc(F)c43)C[C@@H]2C(F)F)cc1` [Compound I-133]: the pKi at CRTH2 (setting [1]) is 5.30 to 7.00. The pIC50 at Human DP1 receptor is 5.30 to 7.00.
